Data reported in patent US11981658B2, “Substituted aminopyridine compounds as EGFR inhibitors” (YUHAN CORPORATION, priority 2021, dated 2024).
Read-outs that look alike come from different tables or passages of the source.

Columns and labels:
EGFR Del19/C797S = EGFR Del19/C797S (Homo sapiens, UniProt P00533, C797S/DEL746-750); assay: Biochemical EGFR kinase inhibition assay (Lance Ultra TR-FRET), double mutant del19/C797S
In short: (§1)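 Enzyme reactions lasted 1 hour at room temperature with test compounds between 0.003 and 10 μM, followed by 10 mM EDTA quench.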

EGFR wildtype (WT) = EGFR wildtype (WT) (Homo sapiens, UniProt P00533); assay: Biochemical EGFR kinase inhibition assay (Lance Ultra TR-FRET), wildtype
EGFR wildtype (WT), sequence (P00533 25-1210): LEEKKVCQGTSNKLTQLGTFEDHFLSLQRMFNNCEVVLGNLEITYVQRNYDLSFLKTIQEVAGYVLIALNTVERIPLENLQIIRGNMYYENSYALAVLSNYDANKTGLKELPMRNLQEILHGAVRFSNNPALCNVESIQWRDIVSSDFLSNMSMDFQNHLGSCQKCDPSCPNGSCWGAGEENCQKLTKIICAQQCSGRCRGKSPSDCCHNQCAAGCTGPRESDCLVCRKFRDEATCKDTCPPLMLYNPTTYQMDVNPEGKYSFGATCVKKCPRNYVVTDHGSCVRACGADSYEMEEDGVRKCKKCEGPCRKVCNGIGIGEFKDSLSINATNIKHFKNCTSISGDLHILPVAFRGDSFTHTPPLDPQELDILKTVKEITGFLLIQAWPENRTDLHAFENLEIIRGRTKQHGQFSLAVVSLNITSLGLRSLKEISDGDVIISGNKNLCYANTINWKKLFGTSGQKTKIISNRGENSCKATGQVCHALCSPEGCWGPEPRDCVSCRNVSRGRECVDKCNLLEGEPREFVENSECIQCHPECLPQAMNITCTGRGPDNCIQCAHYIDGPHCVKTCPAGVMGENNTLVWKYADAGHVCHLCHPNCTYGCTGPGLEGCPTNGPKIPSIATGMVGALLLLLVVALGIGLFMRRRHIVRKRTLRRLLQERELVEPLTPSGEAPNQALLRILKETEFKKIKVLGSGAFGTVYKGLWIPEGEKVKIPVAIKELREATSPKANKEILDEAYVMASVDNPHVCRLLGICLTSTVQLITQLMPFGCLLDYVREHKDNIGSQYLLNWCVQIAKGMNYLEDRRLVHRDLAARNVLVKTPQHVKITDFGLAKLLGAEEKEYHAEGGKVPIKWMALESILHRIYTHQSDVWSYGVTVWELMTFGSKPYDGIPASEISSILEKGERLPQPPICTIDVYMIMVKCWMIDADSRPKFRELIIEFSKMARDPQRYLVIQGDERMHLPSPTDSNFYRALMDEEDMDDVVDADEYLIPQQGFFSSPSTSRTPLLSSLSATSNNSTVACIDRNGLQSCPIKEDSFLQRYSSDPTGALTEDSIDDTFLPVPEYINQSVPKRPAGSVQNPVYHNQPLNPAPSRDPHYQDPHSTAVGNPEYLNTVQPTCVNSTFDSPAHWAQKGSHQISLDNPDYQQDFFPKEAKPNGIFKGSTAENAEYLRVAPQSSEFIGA
In short: as §1

EGFR L858R/C797S = EGFR L858R/C797S (Homo sapiens, UniProt P00533, C797S/L858R); assay: Biochemical EGFR kinase inhibition assay (Lance Ultra TR-FRET), double mutant L858R/C797S
In short: as §1

EGFR L858R/T790M/C797S = EGFR L858R/T790M/C797S (Homo sapiens, UniProt P00533, C797S/L858R/T790M); assay: Biochemical EGFR kinase inhibition assay (Lance Ultra TR-FRET), triple mutant L858R/T790M/C797S
EGFR L858R/T790M/C797S, sequence (P00533 25-1210 T790M/C797S/L858R): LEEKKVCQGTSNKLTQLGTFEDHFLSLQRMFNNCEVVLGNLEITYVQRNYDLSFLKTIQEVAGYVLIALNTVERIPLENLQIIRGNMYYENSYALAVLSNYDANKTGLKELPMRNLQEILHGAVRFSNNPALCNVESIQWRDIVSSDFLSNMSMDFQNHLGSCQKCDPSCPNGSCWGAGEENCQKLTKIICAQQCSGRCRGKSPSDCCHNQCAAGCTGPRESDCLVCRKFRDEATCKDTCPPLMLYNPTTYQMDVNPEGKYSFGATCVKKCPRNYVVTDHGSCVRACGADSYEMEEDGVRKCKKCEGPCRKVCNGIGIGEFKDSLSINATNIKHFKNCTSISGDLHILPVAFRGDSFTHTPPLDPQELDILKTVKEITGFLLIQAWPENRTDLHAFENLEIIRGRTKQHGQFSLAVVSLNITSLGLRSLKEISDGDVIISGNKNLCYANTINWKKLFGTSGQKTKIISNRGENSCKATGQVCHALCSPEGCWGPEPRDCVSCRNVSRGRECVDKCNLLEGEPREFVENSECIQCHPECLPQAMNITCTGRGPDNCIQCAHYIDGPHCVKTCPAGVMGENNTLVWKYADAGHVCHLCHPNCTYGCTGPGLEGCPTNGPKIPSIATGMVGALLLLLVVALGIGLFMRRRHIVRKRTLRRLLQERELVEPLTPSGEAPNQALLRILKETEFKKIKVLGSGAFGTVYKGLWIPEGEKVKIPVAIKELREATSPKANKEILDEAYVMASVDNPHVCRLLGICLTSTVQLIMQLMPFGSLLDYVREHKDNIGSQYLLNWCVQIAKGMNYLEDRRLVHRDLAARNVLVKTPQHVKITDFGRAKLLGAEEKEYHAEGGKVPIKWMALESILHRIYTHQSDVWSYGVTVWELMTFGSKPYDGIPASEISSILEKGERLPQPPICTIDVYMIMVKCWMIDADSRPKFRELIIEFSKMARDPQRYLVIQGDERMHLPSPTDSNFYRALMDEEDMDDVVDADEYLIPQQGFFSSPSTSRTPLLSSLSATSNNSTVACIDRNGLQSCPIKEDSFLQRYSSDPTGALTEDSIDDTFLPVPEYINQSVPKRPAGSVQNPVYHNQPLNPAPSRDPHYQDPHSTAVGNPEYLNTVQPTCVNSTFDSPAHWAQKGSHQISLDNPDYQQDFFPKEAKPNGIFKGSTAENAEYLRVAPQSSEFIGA
In short: as §1

EGFR Del19/T790M/C797S = EGFR Del19/T790M/C797S (Homo sapiens, UniProt P00533, C797S/DEL746-750/T790M); assay: Biochemical EGFR kinase inhibition assay (Lance Ultra TR-FRET), triple mutant del19/T790M/C797S
EGFR Del19/T790M/C797S, sequence (P00533 with tags, fused parts or gaps DEL746-750/T790M/C797S): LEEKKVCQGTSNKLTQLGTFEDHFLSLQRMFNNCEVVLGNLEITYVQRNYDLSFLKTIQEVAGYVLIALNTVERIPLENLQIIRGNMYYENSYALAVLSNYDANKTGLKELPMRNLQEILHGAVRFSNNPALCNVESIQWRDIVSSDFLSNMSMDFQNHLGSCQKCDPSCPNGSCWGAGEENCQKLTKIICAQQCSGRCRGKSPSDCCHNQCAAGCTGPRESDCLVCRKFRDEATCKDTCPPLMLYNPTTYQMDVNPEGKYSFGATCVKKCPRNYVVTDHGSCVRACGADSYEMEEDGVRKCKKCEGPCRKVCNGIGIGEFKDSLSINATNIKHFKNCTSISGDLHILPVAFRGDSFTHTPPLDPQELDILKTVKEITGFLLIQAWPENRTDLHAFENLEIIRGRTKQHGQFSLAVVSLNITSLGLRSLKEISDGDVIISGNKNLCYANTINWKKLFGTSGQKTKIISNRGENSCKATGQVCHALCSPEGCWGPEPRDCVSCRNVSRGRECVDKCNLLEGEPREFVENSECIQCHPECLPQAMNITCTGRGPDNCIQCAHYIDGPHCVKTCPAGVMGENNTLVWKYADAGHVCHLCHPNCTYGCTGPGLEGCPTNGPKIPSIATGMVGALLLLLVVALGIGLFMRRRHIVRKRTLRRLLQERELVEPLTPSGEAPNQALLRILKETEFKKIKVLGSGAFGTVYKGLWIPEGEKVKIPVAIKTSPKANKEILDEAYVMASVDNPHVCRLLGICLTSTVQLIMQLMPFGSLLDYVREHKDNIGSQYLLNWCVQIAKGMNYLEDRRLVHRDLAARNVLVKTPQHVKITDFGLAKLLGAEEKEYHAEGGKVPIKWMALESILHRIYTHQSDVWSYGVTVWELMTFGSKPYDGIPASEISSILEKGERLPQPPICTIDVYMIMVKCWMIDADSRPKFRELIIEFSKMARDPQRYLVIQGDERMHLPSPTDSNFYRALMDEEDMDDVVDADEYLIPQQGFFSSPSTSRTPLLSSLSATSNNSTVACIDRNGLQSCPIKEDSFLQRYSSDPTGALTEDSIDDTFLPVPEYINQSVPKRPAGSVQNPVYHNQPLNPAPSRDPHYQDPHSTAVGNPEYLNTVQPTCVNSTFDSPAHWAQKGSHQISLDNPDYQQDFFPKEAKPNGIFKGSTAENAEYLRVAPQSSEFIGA
In short: as §1

[1] = IC50 Del19/C797S (nM), 100 μM ATP
[2] = Km ATP, read-out: IC50 Del19/C797S (nM) Km ATP
[3] = Km ATP, read-out: IC50 WT (nM) Km ATP
[4] = IC50 L858R/C797S (nM), 100 μM ATP
[5] = Km ATP, read-out: IC50 L858R/C797S (nM) Km ATP
[6] = IC50 L858R/T790M/C797S (nM), 100 μM ATP
[7] = Km ATP, read-out: IC50 L858R/T790M/C797S (nM) Km ATP
[8] = IC50 Del19/T790M/C797S (nM), 100 μM ATP
[9] = Km ATP, read-out: IC50 Del19/T790M/C797S (nM) Km ATP

EGFR Del19/C797S, sequence (P00533 with tags, fused parts or gaps DEL746-750/C797S): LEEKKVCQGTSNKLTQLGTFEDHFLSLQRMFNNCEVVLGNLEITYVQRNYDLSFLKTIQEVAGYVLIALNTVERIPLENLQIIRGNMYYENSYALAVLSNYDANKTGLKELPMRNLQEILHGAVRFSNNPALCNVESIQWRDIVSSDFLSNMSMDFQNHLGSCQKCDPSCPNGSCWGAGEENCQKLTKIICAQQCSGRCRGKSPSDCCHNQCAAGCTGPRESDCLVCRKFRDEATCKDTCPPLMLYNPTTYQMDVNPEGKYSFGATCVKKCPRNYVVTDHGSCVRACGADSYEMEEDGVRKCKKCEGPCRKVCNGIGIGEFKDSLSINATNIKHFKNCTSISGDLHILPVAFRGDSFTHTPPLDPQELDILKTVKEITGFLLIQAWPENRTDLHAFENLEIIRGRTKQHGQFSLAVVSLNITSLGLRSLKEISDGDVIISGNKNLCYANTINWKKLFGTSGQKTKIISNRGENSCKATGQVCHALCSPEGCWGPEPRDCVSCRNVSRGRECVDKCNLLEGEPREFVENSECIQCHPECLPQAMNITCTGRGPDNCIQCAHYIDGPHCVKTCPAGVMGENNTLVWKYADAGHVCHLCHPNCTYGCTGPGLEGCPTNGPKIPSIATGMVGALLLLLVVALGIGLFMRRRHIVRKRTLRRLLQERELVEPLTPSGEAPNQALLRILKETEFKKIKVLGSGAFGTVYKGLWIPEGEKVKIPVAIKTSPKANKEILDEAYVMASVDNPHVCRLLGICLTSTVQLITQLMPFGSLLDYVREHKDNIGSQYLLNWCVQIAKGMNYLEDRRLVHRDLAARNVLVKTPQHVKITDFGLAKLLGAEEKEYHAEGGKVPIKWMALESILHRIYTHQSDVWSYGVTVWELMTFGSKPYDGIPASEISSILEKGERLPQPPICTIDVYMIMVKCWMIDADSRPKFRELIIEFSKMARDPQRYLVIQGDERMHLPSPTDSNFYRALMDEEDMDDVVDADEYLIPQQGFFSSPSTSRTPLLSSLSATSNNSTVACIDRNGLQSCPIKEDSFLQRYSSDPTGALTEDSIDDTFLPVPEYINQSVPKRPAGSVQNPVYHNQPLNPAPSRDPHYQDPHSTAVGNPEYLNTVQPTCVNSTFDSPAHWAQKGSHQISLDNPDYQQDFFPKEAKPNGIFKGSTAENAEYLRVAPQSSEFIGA

Structure (SMILES)	IC50 (EGFR Del19/C797S; [1]) [nM]	IC50 (EGFR Del19/C797S; [2]) [nM]	IC50 (EGFR wildtype (WT); IC50 WT (nM), 100 μM ATP) [nM]	IC50 (EGFR wildtype (WT); [3]) [nM]	IC50 (EGFR L858R/C797S; [4]) [nM]	IC50 (EGFR L858R/C797S; [5]) [nM]	IC50 (EGFR L858R/T790M/C797S; [6]) [nM]	IC50 (EGFR L858R/T790M/C797S; [7]) [nM]	IC50 (EGFR Del19/T790M/C797S; [8]) [nM]	IC50 (EGFR Del19/T790M/C797S; [9]) [nM]
O=S(=O)(C1CC1)n1cc(-c2nccc(Nc3cc(N4CCC(F)(CO)CC4)c(C#Cc4cnn(C5CCOCC5)c4)cn3)n2)cn1 [Example 96, (1-(2-((2-(1-(Cyclopropylsulfonyl)-1H-pyrazol-4-yl)pyrimidin-4-yl)amino)-5-((1-(tetrahydro-2H-pyran-4-yl)-1H-pyrazol-4-yl)ethynyl)pyridin-4-yl)-4-fluoropiperidin-4-yl)methanol]	3.1	3	> 10000	12.8	8.1	1.5	2.1	0.6	1	1
O=S(=O)(C1CC1)n1cc(-c2nccc(Nc3cc(N4CCC(F)CC4)c(C#Cc4cnn(C5CCOCC5)c4)cn3)n2)cn1 [Example 97, 2-(1-(Cyclopropylsulfonyl)-1H-pyrazol-4-yl)-N-(4-(4-fluoropiperidin-1-yl)-5-((1-(tetrahydro-2H-pyran-4-yl)-1H-pyrazol-4-yl)ethynyl)pyridin-2-yl)pyrimidin-4-amine]	25.1	18.3	> 10000	86.5	162	9.2	5.9	1.7	1.8	1.8
COC1CCN(c2cc(Nc3ccnc(-c4cnn(S(=O)(=O)C5CC5)c4)n3)ncc2C#Cc2cnn(C3CCOCC3)c2)CC1 [Example 98, 2-(1-(Cyclopropylsulfonyl)-1H-pyrazol-4-yl)-N-(4-(4-methoxypiperidin-1-yl)-5-((1-(tetrahydro-2H-pyran-4-yl)-1H-pyrazol-4-yl)ethynyl)pyridin-2-yl)pyrimidin-4-amine]	21.1	15.5	> 10000	72	101	7.5	9.9	2.3	2.1	2.3
O=S(=O)(C1CC1)n1cc(-c2nccc(Nc3cc(N4CCCC(O)C4)c(C#Cc4cnn(C5CCOCC5)c4)cn3)n2)cn1 (centres unmarked) [Example 99, 1-(2-((2-(1-(Cyclopropylsulfonyl)-1H-pyrazol-4-yl)pyrimidin-4-yl)amino)-5-((1-(tetrahydro-2H-pyran-4-yl)-1H-pyrazol-4-yl)ethynyl)pyridin-4-yl)piperidin-3-ol]	14	10.4	> 10000	41.7	58.1	4.2	3	0.8	0.7	0.7
O=S(=O)(C1CC1)n1cc(-c2nccc(Nc3cc(N4CCCC(CO)C4)c(C#Cc4cnn(C5CCOCC5)c4)cn3)n2)cn1 (centres unmarked) [Example 100, (1-(2-((2-(1-(Cyclopropylsulfonyl)-1H-pyrazol-4-yl)pyrimidin-4-yl)amino)-5-((1-(tetrahydro-2H-pyran-4-yl)-1H-pyrazol-4-yl)ethynyl)pyridin-4-yl)piperidin-3-yl)methanol]	12.9	10.7	> 10000	62	73.9	7.1	5.6	1.3	1.6	1.7
CC1(CO)CCN(c2cc(Nc3ccnc(-c4cnn(S(=O)(=O)C5CC5)c4)n3)ncc2C#Cc2cnn(C(F)(F)F)c2)CC1 [Example 101, (1-(2-((2-(1-(Cyclopropylsulfonyl)-1H-pyrazol-4-yl)pyrimidin-4-yl)amino)-5-((1-(trifluoromethyl)-1H-pyrazol-4-yl)ethynyl)pyridin-4-yl)-4-methylpiperidin-4-yl)methanol]	7.9	4.3	> 10000	32	104	3	4.8	2.4	3.2	3.5
O=S(=O)(C1CC1)n1cc(-c2nccc(Nc3cc(N[C@H]4CC[C@@H](O)CC4)c(C#Cc4cnn(C(F)(F)F)c4)cn3)n2)cn1 [Example 102, (1s,4s)-4-((2-((2-(1-(Cyclopropylsulfonyl)-1H-pyrazol-4-yl)pyrimidin-4-yl)amino)-5-((1-(trifluoromethyl)-1H-pyrazol-4-yl)ethynyl)pyridin-4-yl)amino)cyclohexan-1-ol]	26.6	13.9	> 10000	186	1030	15.7	7.6	2.1	2.7	2.8
O=S(=O)(C1CC1)n1cc(-c2nccc(Nc3cc(N[C@H]4CCC[C@H](O)C4)c(C#Cc4cnn(C(F)(F)F)c4)cn3)n2)cn1 [Example 103, (1 S,3S)-3-((2-((2-(1-(Cyclopropylsulfonyl)-1H-pyrazol-4-yl)pyrimidin-4-yl)amino)-5-((1-(trifluoromethyl)-1H-pyrazol-4-yl)ethynyl)pyridin-4-yl)amino)cyclohexan-1-ol]	87.3	66.8	> 10000	1070	1230	104	8.5	2.8	3.5	2.7
CC1(O)CC2(CCN(c3cc(Nc4ccnc(-c5cnn(S(=O)(=O)C6CC6)c5)n4)ncc3C#Cc3cnn(C(F)(F)F)c3)CC2)C1 [Example 104, 7-(2-((2-(1-(Cyclopropylsulfonyl)-1H-pyrazol-4-yl)pyrimidin-4-yl)amino)-5-((1-(trifluoromethyl)-1H-pyrazol-4-yl)ethynyl)pyridin-4-yl)-2-methyl-7-azaspiro[3.5]nonan-2-ol]	12.4	9.7	> 10000	89.4	119	32.3	3	1.1	4.1	3.1
C[C@]1(O)CC[C@@H](Nc2cc(Nc3ccnc(-c4cnn(S(=O)(=O)C5CC5)c4)n3)ncc2C#Cc2cnn(C(F)(F)F)c2)CC1 [Example 105, (1s,4s)-4-((2-((2-(1-(Cyclopropylsulfonyl)-1H-pyrazol-4-yl)pyrimidin-4-yl)amino)-5-((1-(trifluoromethyl)-1H-pyrazol-4-yl)ethynyl)pyridin-4-yl)amino)-1-methylcyclohexan-1-ol]	64.2	48.7	> 10000	2520	2200	100	6.5	1.5	3.2	2.3
Cn1ccc(C#Cc2cnc(Nc3ccnc(-c4cnn(S(=O)(=O)C5CC5)c4)n3)cc2N[C@H]2CC[C@@H](O)CC2)n1 [Example 106, (1s,4s)-4-((2-((2-(1-(Cyclopropylsulfonyl)-1H-pyrazol-4-yl)pyrimidin-4-yl)amino)-5-((1-methyl-1H-pyrazol-3-yl)ethynyl)pyridin-4-yl)amino)cyclohexan-1-ol]	15.1	12.5	> 10000	95.5	274	6.1	1.6	0.6	1.1	1
Cn1ccc(C#Cc2cnc(Nc3ccnc(-c4cnn(S(=O)(=O)C5CC5)c4)n3)cc2N2CCC(C)(CO)CC2)n1 [Example 107, (1-(2-((2-(1-(Cyclopropylsulfonyl)-1H-pyrazol-4-yl)pyrimidin-4-yl)amino)-5-((1-methyl-1H-pyrazol-3-yl)ethynyl)pyridin-4-yl)-4-methylpiperidin-4-yl)methanol]	4.6	3.2	> 10000	24.1	85.6	1.9	1.3	0.6	1.2	1.2
CC(=O)N1CCC(n2cc(C#Cc3cnc(Nc4ccnc(-c5cnn(S(=O)(=O)C6CC6)c5)n4)cc3N3CCC(=O)CC3)cn2)CC1 [Example 108, 1-(5-((1-(1-Acetylpiperidin-4-yl)-1H-pyrazol-4-yl)ethynyl)-2-((2-(1-(cyclopropylsulfonyl)-1H-pyrazol-4-yl)pyrimidin-4-yl)amino)pyridin-4-yl)piperidin-4-one]	29.8	25.5	> 10000	126	154	8.4	7.8	1.6	1.2	1.1
CC(=O)N1CCC(n2cc(C#Cc3cnc(Nc4ccnc(-c5cnn(S(=O)(=O)C6CC6)c5)n4)cc3N[C@H]3CC[C@@H](O)CC3)cn2)CC1 [Example 109, 1-(4-(4-((6-((2-(1-(Cyclopropylsulfonyl)-1H-pyrazol-4-yl)pyrimidin-4-yl)amino)-4-(((1 s, 4s)-4-hydroxycyclohexyl)amino)pyridin-3-yl)ethynyl)-1H-pyrazol-1-yl)piperidin-1-yl)ethan-1-one]	3	2.3	> 10000	10.4	9.1	1.6	1.4	0.7	1	0.9
